The compounds below were run against T1, human β3 adrenergic receptor (Homo sapiens, UniProt P13945) (assay: whole cell receptor coupled c-AMP assay, human β3 receptor in CHO cells (EC50, Emax relative to isoproterenol)). Settings: % intrinsic activity relative to isoproterenol maximal response; SEM in brackets; c-AMP in transfected CHO cells.
T1 construct: expressed in transfected cells; host or cells: DXB-11 Chinese hamster ovary (CHO) cell line, stably transfected (phd expression vector)
Assay type: cell-based
Method in brief: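 Stably transfected DXB-11 CHO cells (20,000/well) were exposed to compound for 20 min at 37 °C in HBSS/HEPES buffer with 1 mM IBMX, pH 7.4. cAMP was measured by SPA. EC50 came from a four-parameter logistic fit, and Emax is the maximal response as a percentage of isoproterenol's.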

T1 sequence (P13945 whole entry): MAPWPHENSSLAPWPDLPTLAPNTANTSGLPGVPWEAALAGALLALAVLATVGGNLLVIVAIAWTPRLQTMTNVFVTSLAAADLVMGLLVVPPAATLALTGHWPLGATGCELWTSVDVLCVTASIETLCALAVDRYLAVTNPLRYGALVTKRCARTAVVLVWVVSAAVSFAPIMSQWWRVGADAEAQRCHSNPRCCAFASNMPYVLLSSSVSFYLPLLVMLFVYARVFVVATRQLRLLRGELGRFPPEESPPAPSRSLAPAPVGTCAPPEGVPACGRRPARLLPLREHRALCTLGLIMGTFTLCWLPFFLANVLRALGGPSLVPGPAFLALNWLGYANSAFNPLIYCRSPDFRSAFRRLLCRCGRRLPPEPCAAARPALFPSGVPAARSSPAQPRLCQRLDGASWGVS

Emax [%] | SMILES
79.9 | CC(C)(Cc1ccc(Oc2cccnc2C(N)=O)cc1)NC[C@H](O)COc1ccccc1-c1ccc(C(=O)O)s1 [Example 448]
74.2 | CC(C)(Cc1ccc(Oc2ncccc2C(N)=O)cc1)NC[C@H](O)COc1ccccc1-c1ccc(C(=O)O)s1 [Example 449]
67.4 | CC(C)(Cc1ccc(Oc2ncccc2C(N)=O)cc1)NC[C@H](O)COc1ccccc1-c1ccc(C(N)=O)s1 [Example 450]

Same assay, conditions: % intrinsic activity relative to isoproterenol maximal response; average of at least 3 runs; c-AMP in transfected CHO cells

SMILES | Emax (%) ± SEM [%]
Cc1ccc(-c2ccccc2OC[C@@H](O)CNC(C)(C)Cc2ccc(Oc3ccc(C#N)cn3)cc2)s1.Cl [Example 405] | 64.4 ± 7.1
CC(C)(Cc1ccc(Oc2ccc(C#N)cn2)cc1)NC[C@H](O)COc1ccccc1-c1ccc(Cl)s1.O=C(O)C(F)(F)F [Example 406] | 55.8 ± 7.1
CC(C)(Cc1ccc(Oc2ccc(C#N)cn2)cc1)NC[C@H](O)COc1ccccc1-c1ccco1.Cl [Example 408] | 74.0 ± 6.5
Cc1ccc(-c2ccccc2OC[C@@H](O)CNC(C)(C)Cc2ccc(Oc3ccc(C(N)=O)cn3)cc2)s1.Cl [Example 409] | 71.3 ± 3.9
CC(C)(Cc1ccc(Oc2ccc(C(N)=O)cn2)cc1)NC[C@H](O)COc1ccccc1-c1ccc(Cl)s1.Cl [Example 410] | 76.0 ± 5.0
CC(=O)c1ccc(-c2ccccc2OC[C@@H](O)CNC(C)(C)Cc2ccc(Oc3ccc(C(N)=O)cn3)cc2)s1.O=C(O)C(F)(F)F [Example 411] | 78.2 ± 9.9
CC(C)(Cc1ccc(Oc2ccc(C(N)=O)cn2)cc1)NC[C@H](O)COc1ccccc1-c1ccco1.Cl [Example 412] | 74.4 ± 7.0
CC(C)(Cc1ccc(Oc2ncccc2C#N)cc1)NC[C@H](O)COc1ccccc1-c1ccc(Cl)s1.O=C(O)C(F)(F)F [Example 414] | 65.7 ± 11.4
CC(C)(Cc1ccc(Oc2ncccc2C#N)cc1)NC[C@H](O)COc1ccccc1-c1ccco1.Cl [Example 416] | 68.9 ± 6.7
CC(C)(Cc1ccc(Oc2ncccc2C(N)=O)cc1)NC[C@H](O)COc1ccccc1-c1ccco1.Cl [Example 420] | 78.9 ± 2.3
CC(C)(Cc1ccc(Oc2ccc(C#N)cn2)cc1)NC[C@H](O)COc1c(F)cccc1-c1ccsc1.Cl [Example 426] | 61.0 ± 7.1
Cc1ccc(-c2cccc(F)c2OC[C@@H](O)CNC(C)(C)Cc2ccc(Oc3ccc(C#N)cn3)cc2)s1.Cl [Example 427] | 72.4 ± 6.9
CC(C)(Cc1ccc(Oc2ccc(C#N)cn2)cc1)NC[C@H](O)COc1c(F)cccc1-c1ccc(Cl)s1.Cl [Example 428] | 75.5 ± 6.9
CC(=O)c1ccc(-c2cccc(F)c2OC[C@@H](O)CNC(C)(C)Cc2ccc(Oc3ccc(C#N)cn3)cc2)s1.O=C(O)C(F)(F)F [Example 429] | 84.7 ± 12.3
CC(C)(Cc1ccc(Oc2ccc(C#N)cn2)cc1)NC[C@H](O)COc1c(F)cccc1-c1ccco1.Cl [Example 430] | 77.4 ± 9.0
CC(C)(Cc1ccc(Oc2ncccc2C#N)cc1)NC[C@H](O)COc1c(F)cccc1-c1ccsc1.Cl [Example 436] | 57.5 ± 12.0
Cc1ccc(-c2cccc(F)c2OC[C@@H](O)CNC(C)(C)Cc2ccc(Oc3ncccc3C#N)cc2)s1.Cl [Example 437] | 72.0 ± 10.5
CC(C)(Cc1ccc(Oc2ncccc2C#N)cc1)NC[C@H](O)COc1c(F)cccc1-c1ccc(Cl)s1.Cl [Example 438] | 64.3 ± 12.4
CC(=O)c1ccc(-c2cccc(F)c2OC[C@@H](O)CNC(C)(C)Cc2ccc(Oc3ncccc3C#N)cc2)s1.O=C(O)C(F)(F)F [Example 439] | 75.0 ± 9.6
CC(C)(Cc1ccc(Oc2ncccc2C#N)cc1)NC[C@H](O)COc1c(F)cccc1-c1ccco1.Cl [Example 440] | 73.4 ± 4.4
CC(C)(Cc1ccc(Oc2ncccc2C(N)=O)cc1)NC[C@H](O)COc1ccccc1-c1ccsc1.Cl [Example 446] | 64.0 ± 6.0

The next lines start with the values.

Emax (%) ± SEM [%] | SMILES
79.7 ± 7.6 | CC(=O)c1ccc(-c2ccccc2OC[C@@H](O)CNC(C)(C)Cc2ccc(Oc3ccc(C#N)cn3)cc2)s1.Cl [Example 407]
66.9 ± 9.2 | Cc1ccc(-c2ccccc2OC[C@@H](O)CNC(C)(C)Cc2ccc(Oc3ncccc3C#N)cc2)s1.Cl [Example 413]
80.6 ± 5.7 | CC(=O)c1ccc(-c2ccccc2OC[C@@H](O)CNC(C)(C)Cc2ccc(Oc3ncccc3C#N)cc2)s1.O=C(O)C(F)(F)F [Example 415]
79.3 ± 2.4 | Cc1ccc(-c2ccccc2OC[C@@H](O)CNC(C)(C)Cc2ccc(Oc3ncccc3C(N)=O)cc2)s1.Cl [Example 417]
74.4 ± 6.5 | CC(C)(Cc1ccc(Oc2ncccc2C(N)=O)cc1)NC[C@H](O)COc1ccccc1-c1ccc(Cl)s1.Cl [Example 418]
87.5 ± 1.8 | CC(=O)c1ccc(-c2ccccc2OC[C@@H](O)CNC(C)(C)Cc2ccc(Oc3ncccc3C(N)=O)cc2)s1.O=C(O)C(F)(F)F [Example 419]
53.4 ± 6.9 | CC(C)(Cc1ccc(Oc2cccnc2C#N)cc1)NC[C@H](O)COc1ccccc1-c1ccsc1.Cl [Example 421]
60.1 ± 8.2 | Cc1ccc(-c2ccccc2OC[C@@H](O)CNC(C)(C)Cc2ccc(Oc3cccnc3C#N)cc2)s1.Cl [Example 422]
71.2 ± 7.9 | CC(=O)c1ccc(-c2ccccc2OC[C@@H](O)CNC(C)(C)Cc2ccc(Oc3cccnc3C#N)cc2)s1.Cl [Example 424]
67.1 ± 3.0 | CC(C)(Cc1ccc(Oc2cccnc2C#N)cc1)NC[C@H](O)COc1ccccc1-c1ccco1.Cl [Example 425]
